Measured values as given in PubChem BioAssay AID330 (DTP/NCI, 2004).
Values joined by “and” are separate entries in the source; they are usually repeats but may differ in a detail not shown here. Equal entries are not always repeated. Toxic doses and inconclusive results are not listed.

System: P388 leukemia ip, CD2F1 mice, survival T/C
Assay: NCI In Vivo Anticancer Drug Screen. Data for tumor model P388 Leukemia (intraperitoneal) in CD2F1 (CDF1) mice
Details: endpoint: median survival time, higher = longer survival
Procedure, shortened: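 Mice carrying the transplanted tumor received test compound or vehicle. Survival was recorded in each group, and the value is the treated-group measurement divided by that of the vehicle-treated control group.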

[1] = dose: 60.0 mg/kg/injection, schedule: Q01DX005 (ip), vehicle: saline with Tween-80
[2] = dose: 120.0 mg/kg/injection, schedule: Q01DX005 (ip), vehicle: saline with Tween-80
[3] = dose: 100.0 mg/kg/injection, schedule: Q04DX003 (ip), vehicle: saline
[4] = dose: 200.0 mg/kg/injection, schedule: Q04DX003 (ip), vehicle: saline
[5] = dose: 100.0 mg/kg/injection, schedule: Q01DX009 (ip), vehicle: saline with Tween-80
[6] = dose: 100.0 mg/kg/injection, schedule: Q04DX003 (ip), vehicle: saline with Tween-80
[7] = dose: 200.0 mg/kg/injection, schedule: Q04DX003 (ip), vehicle: saline with Tween-80
[8] = dose: 240.0 mg/kg/injection, schedule: Q01DX005 (ip), vehicle: saline with Tween-80
[9] = dose: 50.0 mg/kg/injection, schedule: Q01DX005 (ip), vehicle: Klucel (hydroxypropylcellulose) (HPC)
[10] = dose: 100.0 mg/kg/injection, schedule: Q01DX005 (ip), vehicle: Klucel (hydroxypropylcellulose) (HPC)
[11] = dose: 200.0 mg/kg/injection, schedule: Q01DX005 (ip), vehicle: Klucel (hydroxypropylcellulose) (HPC)
[12] = dose: 400.0 mg/kg/injection, schedule: Q04DX003 (ip), vehicle: saline with Tween-80

In the case of CN=NN(C)C(=O)NC, the T/C (dose: 12.5 mg/kg/injection, schedule: Q01DX005 (ip), vehicle: saline) was 102 % of control and the T/C (dose: 25.0 mg/kg/injection, schedule: Q01DX005 (ip), vehicle: saline) was 117 % of control.
For CCC1=CC2CN(CCc3c([nH]c4ccccc34)C(C(=O)OC)(c3cc4c(cc3OC)N(C)C3C(O)(C(=O)OC)C(OC(C)=O)C5(CC)CCCN6CCC43C65)C2)C1 (stereo not given), the T/C (dose: 0.06 mg/kg/injection, schedule: Q01DX009 (ip), vehicle: water) was 95 % of control, the T/C (dose: 0.13 mg/kg/injection, schedule: Q01DX009 (ip), vehicle: water) was 94 % of control and the T/C (dose: 0.25 mg/kg/injection, schedule: Q01DX009 (ip), vehicle: water) was 94 % of control. The T/C (dose: 0.5 mg/kg/injection, schedule: Q01DX009 (ip), vehicle: water) was 90 % of control, the T/C (dose: 1.0 mg/kg/injection, schedule: Q01DX001 (ip), vehicle: water) was 100 % of control and 115 % of control and the T/C (dose: 1.0 mg/kg/injection, schedule: Q01DX009 (ip), vehicle: water) was 90 % of control. For the same molecule, the T/C (dose: 2.0 mg/kg/injection, schedule: Q01DX001 (ip), vehicle: water) was 107 % of control and 100 % of control, the T/C (dose: 2.0 mg/kg/injection, schedule: Q01DX009 (ip), vehicle: water) was 106 % of control and 110 % of control and the T/C (dose: 4.0 mg/kg/injection, schedule: Q01DX001 (ip), vehicle: water) was 110 % of control and 108 % of control. For the same molecule, the T/C (dose: 4.0 mg/kg/injection, schedule: Q01DX009 (ip), vehicle: water) was 109 % of control and 111 % of control, the T/C (dose: 8.0 mg/kg/injection, schedule: Q01DX001 (ip), vehicle: water) was 119 % of control and 109 % of control and 115 % of control and the T/C (dose: 8.0 mg/kg/injection, schedule: Q01DX009 (ip), vehicle: water) was 122 % of control. For the same molecule, the T/C (dose: 16.0 mg/kg/injection, schedule: Q01DX001 (ip), vehicle: water) was 122 % of control and 112 % of control and 116 % of control and the T/C (dose: 32.0 mg/kg/injection, schedule: Q01DX001 (ip), vehicle: water) was 122 % of control and 115 % of control and 119 % of control.
O=C(/C=C/c1c[nH]c2ccccc12)c1ccccc1[N+](=O)[O-] was tested, and the T/C [1] was 94 % of control and the T/C [2] was 90 % of control.
With CC1C(=O)N(c2ccccc2)c2nc3ccccc3nc21 (stereo not given) the T/C [3] was 88 % of control, the T/C [4] was 97 % of control and the T/C (dose: 400.0 mg/kg/injection, schedule: Q04DX003 (ip), vehicle: saline) was 111 % of control.
With CC1=CC(Cc2ccccc2)N(C)CC1C (stereo not given) the T/C [1] was 97 % of control and the T/C [2] was 91 % of control.
With Cc1c(-c2ccccc2)ccnc1/C=N/NC(=S)NCCc1ccccc1 the T/C [5] was 101 % of control and 95 % of control.
For C/C(=N\NC(=S)NC12CC3CC(CC(C3)C1)C2)c1ccccn1, the T/C [6] was 113 % of control and the T/C [7] was 104 % of control.
In the case of c1ccc(C2SC3=NCCCN3Cc3ccccc32)cc1 (stereo not given), the T/C (dose: 12.5 mg/kg/injection, schedule: Q01DX009 (ip), vehicle: saline) was 104 % of control, the T/C (dose: 25.0 mg/kg/injection, schedule: Q01DX009 (ip), vehicle: saline) was 109 % of control and the T/C (dose: 50.0 mg/kg/injection, schedule: Q01DX009 (ip), vehicle: saline) was 104 % of control and 97 % of control.
For Cc1csc(Cl)c1NC1=NCCN1, the T/C (dose: 50.0 mg/kg/injection, schedule: Q01DX005 (ip), vehicle: saline) was 104 % of control and the T/C (dose: 100.0 mg/kg/injection, schedule: Q01DX005 (ip), vehicle: saline) was 107 % of control.
CC(=O)Nc1ccc(C(=O)c2ccccc2)cc1 was tested, and the T/C (dose: 25.0 mg/kg/injection, schedule: Q04DX003 (ip), vehicle: saline) was 102 % of control, the T/C (dose: 50.0 mg/kg/injection, schedule: Q04DX003 (ip), vehicle: saline) was 103 % of control and the T/C [3] was 100 % of control. For the same molecule, the T/C [4] was 103 % of control.
In the case of O=C(O)C1CCC[N-]1.[Cl][Pt][Cl] (stereo not given), the T/C (dose: 25.0 mg/kg/injection, schedule: Q04DX003 (ip), vehicle: water) was 110 % of control, the T/C (dose: 50.0 mg/kg/injection, schedule: Q04DX003 (ip), vehicle: water) was 94 % of control and the T/C [3] was 157 % of control. For the same molecule, the T/C (dose: 150.0 mg/kg/injection, schedule: Q04DX003 (ip), vehicle: saline) was 157 % of control.
CCOC(=O)c1cnc2cc3c(cc2c1N=[N+]=[N-])OCO3 was tested, and the T/C [1] was 95 % of control, the T/C [2] was 90 % of control and the T/C [8] was 87 % of control.
CC(C)CCNCC(N)C(=O)O (stereo not given) was tested, and the T/C (dose: 100.0 mg/kg/injection, schedule: Q04DX003 (ip), vehicle: Klucel (hydroxypropylcellulose) (HPC)) was 100 % of control, the T/C (dose: 200.0 mg/kg/injection, schedule: Q04DX003 (ip), vehicle: Klucel (hydroxypropylcellulose) (HPC)) was 98 % of control and the T/C (dose: 400.0 mg/kg/injection, schedule: Q04DX003 (ip), vehicle: Klucel (hydroxypropylcellulose) (HPC)) was 99 % of control.
In the case of C=C(OC1C=C(C(=O)O)C2OC2C1O)C(=O)O (stereo not given), the T/C (dose: 2.5 mg/kg/injection, schedule: Q01DX005 (ip), vehicle: saline) was 100 % of control, the T/C (dose: 5.0 mg/kg/injection, schedule: Q01DX005 (ip), vehicle: saline) was 100 % of control and the T/C (dose: 10.0 mg/kg/injection, schedule: Q01DX005 (ip), vehicle: saline) was 106 % of control. For the same molecule, the T/C (dose: 20.0 mg/kg/injection, schedule: Q01DX005 (ip), vehicle: saline) was 102 % of control and the T/C (dose: 40.0 mg/kg/injection, schedule: Q01DX005 (ip), vehicle: saline) was 109 % of control.
CC(=O)Nc1ncnc2c1c(C(N)=O)cn2C1OC(COC(C)=O)C(OC(C)=O)C1OC(C)=O (stereo not given) was tested, and the T/C (dose: 1.88 mg/kg/injection, schedule: Q01DX005 (ip), vehicle: saline) was 107 % of control and the T/C (dose: 3.75 mg/kg/injection, schedule: Q01DX005 (ip), vehicle: saline) was 117 % of control.
In the case of [Se]c1nccn2cnnc12, the T/C (dose: 1.56 mg/kg/injection, schedule: Q01DX001 (ip), vehicle: saline) was 99 % of control and 101 % of control, the T/C (dose: 3.12 mg/kg/injection, schedule: Q01DX001 (ip), vehicle: saline) was 100 % of control and 96 % of control and the T/C (dose: 6.25 mg/kg/injection, schedule: Q01DX001 (ip), vehicle: saline) was 99 % of control and 105 % of control. The T/C (dose: 12.5 mg/kg/injection, schedule: Q01DX001 (ip), vehicle: saline) was 103 % of control and 109 % of control.
In the case of N=C(N)c1ccc(N=Nc2cc(N=Nc3ccc(C(=N)N)cc3)c(O)cc2O)cc1, the T/C [9] was 92 % of control, the T/C [10] was 92 % of control and the T/C [11] was 100 % of control.
CC12CC[C]([Hg][I])(CC1)C2(C)C was tested, and the T/C (dose: 6.25 mg/kg/injection, schedule: Q01DX009 (ip), vehicle: saline with Tween-80) was 105 % of control, the T/C (dose: 12.5 mg/kg/injection, schedule: Q01DX009 (ip), vehicle: saline with Tween-80) was 112 % of control and the T/C (dose: 25.0 mg/kg/injection, schedule: Q01DX009 (ip), vehicle: saline with Tween-80) was 107 % of control.
With COC(=O)C(C(=O)OC)C(CC(=O)c1ccccc1)c1ccccc1 (stereo not given) the T/C (dose: 50.0 mg/kg/injection, schedule: Q01DX009 (ip), vehicle: saline with Tween-80) was 109 % of control, the T/C [5] was 103 % of control and the T/C (dose: 200.0 mg/kg/injection, schedule: Q01DX009 (ip), vehicle: saline with Tween-80) was 103 % of control.
For O=C(Nc1ccc([N+](=O)[O-])cc1)OCCI, the T/C [6] was 101 % of control, the T/C [7] was 92 % of control and the T/C [12] was 92 % of control.
In the case of COc1cc(C(=O)CO)cc(OC)c1OC(C)=O, the T/C [6] was 104 % of control and 105 % of control and the T/C [7] was 116 % of control.
In the case of CCN(CC)CCOC(=O)Cc1cc(C)cc2c(=O)cc(-c3ccccc3)oc12, the T/C [9] was 97 % of control, the T/C [10] was 102 % of control and the T/C [11] was 101 % of control.
For NC1=C(O)C(=O)C(c2c(Cl)cccc2Cl)O1 (stereo not given), the T/C (dose: 60.0 mg/kg/injection, schedule: Q01DX005 (ip), vehicle: Klucel (hydroxypropylcellulose) (HPC)) was 105 % of control, the T/C (dose: 120.0 mg/kg/injection, schedule: Q01DX005 (ip), vehicle: Klucel (hydroxypropylcellulose) (HPC)) was 102 % of control and the T/C (dose: 240.0 mg/kg/injection, schedule: Q01DX005 (ip), vehicle: Klucel (hydroxypropylcellulose) (HPC)) was 105 % of control.
COc1nc(NC2OC(CO)C(O)C(O)C2O)c(Cl)c(=O)n1C (stereo not given) was tested, and the T/C [1] was 94 % of control, the T/C [2] was 93 % of control and the T/C [8] was 97 % of control.
O=[N+]([O-])c1c(-c2ccccc2)csc1SSc1scc(-c2ccccc2)c1[N+](=O)[O-] was tested, and the T/C [6] was 103 % of control, the T/C [7] was 96 % of control and the T/C [12] was 100 % of control.
CC(=O)Nc1ccc(S(=O)(=O)/C(=C\c2ccc(Cl)o2)c2ccc([N+](=O)[O-])o2)cc1 was tested, and the T/C (dose: 50.0 mg/kg/injection, schedule: Q01DX009 (ip), vehicle: suspension in saline) was 86 % of control, the T/C (dose: 100.0 mg/kg/injection, schedule: Q01DX009 (ip), vehicle: suspension in saline) was 88 % of control and the T/C (dose: 200.0 mg/kg/injection, schedule: Q01DX009 (ip), vehicle: suspension in saline) was 92 % of control.
